Data reported in US7740835B2, “Anaerobic bacterium as a drug for cancer gene therapy” (Anaeropharma Science Inc., priority 2000, dated 2010).

System: Lewis lung cancer cells
Experiment: Growth of B. longum in tumor tissues by administering lacturose
Assay type: in vivo, mice
Conditions: B. longum 105-A administered; 1 ml of 20 t lacturose solution intraperitoneally for 8 successive days; analysed on the 9th day
Excerpt: Lacturose (provided by Nikken Chemicals Co., Ltd.) is a synthetic saccharide not occurring in nature, and it is known that lacturose cannot be metabolized by humans, mice and pigs (Biochem. Biophys. Acta, 110, 635 (1965), Pediatrics, 32, 1033 (1963), Gastroenterology, 47, 26 (1964), Die Nahrung, 11, 39 (1967)). On the other hand, B. longum is capable of growing with lacturose as a carbon source.
As a result, the number of B. longum bacteria present of the tumor tissues in the tumor-bearing mouse group given lacturose was 200-times as more as that of the control group not given lacturose.

For OC[C@H]1O[C@@H](O[C@@H]2[C@@H](CO)OC(O)(CO)[C@H]2O)[C@H](O)[C@@H](O)[C@H]1O (stereo partly drawn) [lacturose, 4-0-β-D-galactopyranosyl-D-fructofuranose], which “number of B. longum bacteria in tumor tissues of the group given lacturose relative to the control group not given lacturose” value is on record?
Its value is 200 times.
